Data taken from patent publication US20110021565A1, “PIPERIDINE DERIVATIVES AS NK3 ANTAGONISTS” (priority 2007, published 2011).
pKi: −log10 of the molar value. Like-named read-outs stand apart in the source and are kept apart here.

Target: T1, recombinant human NK3 receptor (Homo sapiens, UniProt P29371)
T1 construct: expressed in transfected cells; host or cells: HEK293 cells, transient expression; membrane preparation
T1 sequence (P29371 1-465): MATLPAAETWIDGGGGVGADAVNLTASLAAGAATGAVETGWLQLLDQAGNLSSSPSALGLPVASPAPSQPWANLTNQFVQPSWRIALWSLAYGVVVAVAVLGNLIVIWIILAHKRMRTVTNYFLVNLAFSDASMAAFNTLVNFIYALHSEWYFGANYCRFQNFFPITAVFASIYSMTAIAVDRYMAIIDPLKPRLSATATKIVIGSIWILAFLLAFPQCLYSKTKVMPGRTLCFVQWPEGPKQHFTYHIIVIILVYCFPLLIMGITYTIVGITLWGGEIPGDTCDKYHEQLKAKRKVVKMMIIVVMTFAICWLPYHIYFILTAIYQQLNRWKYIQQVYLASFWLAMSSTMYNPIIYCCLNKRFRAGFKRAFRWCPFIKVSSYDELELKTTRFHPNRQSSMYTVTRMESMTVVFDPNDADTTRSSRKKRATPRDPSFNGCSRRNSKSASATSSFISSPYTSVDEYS
Assay: [3H]SR142801 competition binding assay
In short: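 Ki derived by Cheng-Prusoff from Hill-fitted IC50 curves, duplicates, 10 μM SB222200 defining nonspecific binding. Radioligand used at KD concentration against compound at 0.0003-10 μM; transiently transfected HEK293 membranes, 5 μg/well, 75 min room temperature, Tris-HCl/MnCl2/phosphoramidon/BSA pH 7.4. Filter-bound counts read by scintillation.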

[1] = [3H]SR142801, membranes of HEK293 cells transiently expressing recombinant human NK3 receptor, read-out: hNK3 Ki
[2] = representative compounds, [3H]SR142801, HEK293 membranes, human NK3 receptor, read-out: Ki NK3 h

| SMILES | pKi [1] | pKi [2] |
| --- | --- | --- |
| CC(CCN1CCC(NS(C)(=O)=O)CC1)(C(=O)NCc1ccc(OC(F)(F)F)cc1)c1ccc(Cl)c(Cl)c1 (stereo not shown) [Example 23, 2-(3,4-Dichloro-phenyl)-4-(4-methanesulfonyl-amino-piperidin-1-yl)-2-methyl-N-(4-trifluoromethoxy-benzyl)-butyramide] | 6.85 | – |
| CC(CCN1CCC(NS(C)(=O)=O)CC1)(C(=O)NCc1ccc(Cl)c(C(F)(F)F)c1)c1ccc(Cl)c(Cl)c1 (stereo not shown) [Example 24, N-(4-Chloro-3-trifluoromethyl-benzyl)-2-(3,4-dichloro-phenyl)-4-(4-methanesulfonyl-amino-piperidin-1-yl)-2-methyl-butyramide] | 7.15 | – |
| CN(Cc1ccc(C(F)(F)F)cc1)C(=O)C(C)(CCN1CCC(NS(C)(=O)=O)CC1)c1ccc(Cl)c(Cl)c1 (stereo not shown) [Example 25, 2-(3,4-Dichloro-phenyl)-4-(4-methanesulfonyl-amino-piperidin-1-yl)-2,N-dimethyl-N-(4-trifluoromethyl-benzyl)-butyramide] | 7.54 | – |
| CN(Cc1ccc(Cl)cc1)C(=O)C(C)(CCN1CCC(NS(C)(=O)=O)CC1)c1ccc(Cl)c(Cl)c1 (stereo not shown) [Example 26, N-(4-Chloro-benzyl)-2-(3,4-dichloro-phenyl)-4-(4-methanesulfonyl-amino-piperidin-1-yl)-2,N-dimethyl-butyramide] | 7.58 | – |
| CN(Cc1ccc(C(F)(F)F)nc1)C(=O)C(C)(CCN1CCC(NS(C)(=O)=O)CC1)c1ccc(Cl)c(Cl)c1 (stereo not shown) [Example 31, 2-(3,4-Dichloro-phenyl)-4-(4-methanesulfonyl-amino-piperidin-1-yl)-2,N-dimethyl-N-(6-trifluoromethyl-pyridin-3-ylmethyl)-butyramide] | 6.30 | – |
| CN(Cc1ccc(C(F)(F)F)cc1)C(=O)C(CCN1CCC(NS(C)(=O)=O)CC1)c1ccc(Cl)c(Cl)c1 (stereo not shown) [Example 33, 2-(3,4-Dichloro-phenyl)-4-(4-methanesulfonyl-amino-piperidin-1-yl)-N-methyl-N-(4-trifluoromethyl-benzyl)-butyramide] | 7.09 | – |
| CN(Cc1ccc(Cl)cc1)C(=O)C(CCN1CCC(NS(C)(=O)=O)CC1)c1ccc(Cl)c(Cl)c1 (stereo not shown) [Example 37, N-(4-Chloro-benzyl)-2-(3,4-dichloro-phenyl)-4-(4-methanesulfonyl-amino-piperidin-1-yl)-N-methyl-butyramide] | 7.10 | – |
| Cc1ccc(CN(C)C(=O)C(CCN2CCC(NS(C)(=O)=O)CC2)c2ccc(Cl)c(Cl)c2)cc1 (stereo not shown) [Example 38, 2-(3,4-Dichloro-phenyl)-4-(4-methanesulfonyl-amino-piperidin-1-yl)-N-methyl-N-(4-methyl-benzyl)-butyramide] | 7.03 | – |
| CN(Cc1cccc(Cl)c1)C(=O)C(CCN1CCC(NS(C)(=O)=O)CC1)c1ccc(Cl)c(Cl)c1 (stereo not shown) [Example 39, N-(3-Chloro-benzyl)-2-(3,4-dichloro-phenyl)-4-(4-methanesulfonyl-amino-piperidin-1-yl)-N-methyl-butyramide] | 6.67 | – |
| CN(Cc1cccc(C(F)(F)F)c1)C(=O)C(CCN1CCC(NS(C)(=O)=O)CC1)c1ccc(Cl)c(Cl)c1 (stereo not shown) [Example 40, 2-(3,4-Dichloro-phenyl)-4-(4-methanesulfonyl-amino-piperidin-1-yl)-N-methyl-N-(3-trifluoromethyl-benzyl)-butyramide] | 6.55 | – |
| CN(Cc1ccccc1Cl)C(=O)C(CCN1CCC(NS(C)(=O)=O)CC1)c1ccc(Cl)c(Cl)c1 (stereo not shown) [Example 41, N-(2-Chloro-benzyl)-2-(3,4-dichloro-phenyl)-4-(4-methanesulfonyl-amino-piperidin-1-yl)-N-methyl-butyramide] | 6.59 | – |
| CS(=O)(=O)NC1CCN(CCC(C(=O)NCc2ccc(Cl)c(Cl)c2)c2ccc(Cl)c(Cl)c2)CC1 (stereo not shown) [Example 42, N-(3,4-Dichloro-benzyl)-2-(3,4-dichloro-phenyl)-4-(4-methanesulfonyl-amino-piperidin-1-yl)-butyramide] | 6.72 | – |
| CN(Cc1cccc(F)c1)C(=O)C(CCN1CCC(NS(C)(=O)=O)CC1)c1ccc(Cl)c(Cl)c1 (stereo not shown) [Example 43, 2-(3,4-Dichloro-phenyl)-N-(3-fluoro-benzyl)-4-(4-methanesulfonyl-amino-piperidin-1-yl)-N-methyl-butyramide] | 6.59 | – |
| CN(Cc1ccc(F)c(C(F)(F)F)c1)C(=O)C(CCN1CCC(NS(C)(=O)=O)CC1)c1ccc(Cl)c(Cl)c1 (stereo not shown) [Example 44, 2-(3,4-Dichloro-phenyl)-N-(4-fluoro-3-trifluoromethyl-benzyl)-4-(4-methanesulfonyl-amino-piperidin-1-yl)-N-methyl-butyramide] | 6.88 | – |
| CN(Cc1ccc(Cl)c(C(F)(F)F)c1)C(=O)C(C)(CCN1CCC(N(C)S(C)(=O)=O)CC1)c1ccc(Cl)c(Cl)c1 (stereo not shown) [Example 46, N-(4-Chloro-3-trifluoromethyl-benzyl)-2-(3,4-dichloro-phenyl)-4-[4-(methanesulfonyl-methyl-amino)-piperidin-1-yl]-2,N-dimethyl-butyramide] | 8.62 | 8.62 |
| CN(Cc1ccc(F)c(C(F)(F)F)c1)C(=O)C(C)(CCN1CCC(N(C)S(C)(=O)=O)CC1)c1ccc(Cl)c(Cl)c1 (stereo not shown) [Example 47, 2-(3,4-Dichloro-phenyl)-N-(4-fluoro-3-trifluoromethyl-benzyl)-4-[4-(methanesulfonyl-methyl-amino)-piperidin-1-yl]-2,N-dimethyl-butyramide] | 8.68 | 8.68 |
| CN(Cc1ccc(Cl)c(Cl)c1)C(=O)C(C)(CCN1CCC(N(C)S(C)(=O)=O)CC1)c1ccc(Cl)c(Cl)c1 (stereo not shown) [Example 48, N-(3,4-Dichloro-benzyl)-2-(3,4-dichloro-phenyl)-4-[4-(methanesulfonyl-methyl-amino)-piperidin-1-yl]-2,N-dimethyl-butyramide] | 8.44 | 8.44 |

Other lines, results leading:

| pKi [1] | pKi [2] | SMILES |
| --- | --- | --- |
| 6.58 | – | CC(CCN1CCC(NS(C)(=O)=O)CC1)(C(=O)NCc1ccc(C#N)cc1)c1ccc(Cl)c(Cl)c1 (stereo not shown) [Example 27, N-(4-Cyano-benzyl)-2-(3,4-dichloro-phenyl)-4-(4-methanesulfonyl-amino-piperidin-1-yl)-2-methyl-butyramide] |
| 7.66 | – | CN(Cc1cccc(C(F)(F)F)c1)C(=O)C(C)(CCN1CCC(NS(C)(=O)=O)CC1)c1ccc(Cl)c(Cl)c1 (stereo not shown) [Example 28, 2-(3,4-Dichloro-phenyl)-4-(4-methanesulfonyl-amino-piperidin-1-yl)-2,N-dimethyl-N-(3-trifluoromethyl-benzyl)-butyramide] |
| 7.31 | – | CN(Cc1cccc(Cl)c1)C(=O)C(C)(CCN1CCC(NS(C)(=O)=O)CC1)c1ccc(Cl)c(Cl)c1 (stereo not shown) [Example 29, N-(3-Chloro-benzyl)-2-(3,4-dichloro-phenyl)-4-(4-methanesulfonyl-amino-piperidin-1-yl)-2,N-dimethyl-butyramide] |
| 6.91 | – | CN(Cc1cccc(F)c1)C(=O)C(C)(CCN1CCC(NS(C)(=O)=O)CC1)c1ccc(Cl)c(Cl)c1 (stereo not shown) [Example 30, 2-(3,4-Dichloro-phenyl)-N-(3-fluoro-benzyl)-4-(4-methanesulfonyl-amino-piperidin-1-yl)-2,N-dimethyl-butyramide] |
| 7.21 | – | CN(Cc1ccc(C(F)(F)F)c(F)c1)C(=O)C(CCN1CCC(NS(C)(=O)=O)CC1)c1ccc(Cl)c(Cl)c1 (stereo not shown) [Example 32, 2-(3,4-Dichloro-phenyl)-N-(3-fluoro-4-trifluoromethyl-benzyl)-4-(4-methanesulfonyl-amino-piperidin-1-yl)-N-methyl-butyramide] |
| 7.11 | – | CN(Cc1ccc(Cl)c(Cl)c1)C(=O)C(CCN1CCC(NS(C)(=O)=O)CC1)c1ccc(Cl)c(Cl)c1 (stereo not shown) [Example 34, N-(3,4-Dichloro-benzyl)-2-(3,4-dichloro-phenyl)-4-(4-methanesulfonyl-amino-piperidin-1-yl)-N-methyl-butyramide] |
| 6.83 | – | CN(Cc1ccc(Cl)c(C(F)(F)F)c1)C(=O)C(CCN1CCC(NS(C)(=O)=O)CC1)c1ccc(Cl)c(Cl)c1 (stereo not shown) [Example 35, N-(4-Chloro-3-trifluoromethyl-benzyl)-2-(3,4-dichloro-phenyl)-4-(4-methanesulfonyl-amino-piperidin-1-yl)-N-methyl-butyramide] |
| 6.45 | – | CS(=O)(=O)NC1CCN(CCC(C(=O)NCc2ccc(Cl)c(C(F)(F)F)c2)c2ccc(Cl)c(Cl)c2)CC1 (stereo not shown) [Example 36, N-(4-Chloro-3-trifluoromethyl-benzyl)-2-(3,4-dichloro-phenyl)-4-(4-methanesulfonyl-amino-piperidin-1-yl)-butyramide] |
| 8.07 | 8.07 | CN(Cc1ccc(C(F)(F)F)c(F)c1)C(=O)C(C)(CCN1CCC(N(C)S(C)(=O)=O)CC1)c1ccc(Cl)c(Cl)c1 (stereo not shown) [Example 45, 2-(3,4-Dichloro-phenyl)-N-(3-fluoro-4-trifluoromethyl-benzyl)-4-[4-(methanesulfonyl-methyl-amino)-piperidin-1-yl]-2,N-dimethyl-butyramide] |
| 7.73 | – | CN(C1CCN(CCC(C)(C(=O)NC(c2ccccc2)C(F)(F)F)c2ccc(Cl)c(Cl)c2)CC1)S(C)(=O)=O (stereo not shown) [Example 51, 2-(3,4-Dichloro-phenyl)-4-[4-(methanesulfonyl-methyl-amino)-piperidin-1-yl]-2-methyl-N-(2,2,2-trifluoro-1-phenyl-ethyl)-butyramide] |
